What was measured:
RAW264.7 macrophages = test: Intracellular uptake of FITC-rmCIRP by macrophages (flow cytometry, confocal microscopy); type: cell-based, mouse; conditions: RAW264.7, FITC-rmCIRP 1 μg/mL co-incubated with test substance (peptide 10 μg/mL), 1 hour, vs FITC-rmCIRP alone
Method: FIG. 3. Effects of MOP peptides MOP-3, MOP-8 and MOP-14 on eCIRP. Flow cytometry experiment whereby RAW264.7 macrophages were treated for 1 hour according to respective group: PBS (volume-equivalent), FITC-rmCIRP (1 μg/mL), or a mixture of FITC-rmCIRP (1 μg/mL) with each respective peptide (10 μg/mL) after co-incubating for 30 minutes. Intracellular FITC-rmCIRP was analyzed by flow cytometry. Median fluorescence intensity (MFI) reported as percentage relative to PBS-treated RAW264.7 cells. Data from two independent experiments are expressed as mean±SEM and compared by one-way ANOVA and SNK test. *p<0.05 vs. PBS, #p<0.05 vs. eCIRP.
(§1) Computational modeling was used to determine the likely domain of MFG-E8's binding to eCIRP. The known amino acid (AA) sequence of this domain was used to develop and test potential therapeutic peptides. An MFG-E8 derived oligopeptide, MOP3, was developed based on 15 AA from MFG-E8 discoidin 2 domain (mimicking MFG-E8's C-terminal) and tagged with the 3 AA, RGD, (mimicking MFG-E8's binding capacity for the integrin receptor at the N-terminal). Binding of MOP3 to CIRP was quantified using Surface Plasmon Resonance (SPR) analysis. Macrophages (RAW264.7 cells) were treated with FITC-recombinant mouse (rm)-CIRP or co-incubated MOP3 and FITC-rmCIRP with and without a. Br-integrin Ab. After 1 h, cells were fixed and analyzed for intracellular FITC-rmCIRP by flow cytometry. Macrophages were stimulated with rmCIRP or co-incubated mixture of MOP3 and rmCIRP. After 4 h, cell culture supernatants were analyzed for inflammatory cytokine, TNFα.
Mouse macrophage cell line, RAW264.7 cells were obtained from American Type Culture Collection (ATCC) and cultured in DMEM media with 10% FBS, 1% penicillin and streptomycin, and 1% glutamine. Cells were kept in 37° C. incubator under humidified conditions containing 5% CO2.
rmCIRP was labeled using a FITC Conjugation Kit (Abcam, ab188285), and rmMFG-E8 was labeled using Alexa Fluor Conjugation Kit (Abcam, ab269821), both according to respective manufacturer's instructions.
In order to visualize cellular uptake, we initially utilized TRITC-BSA as an internal probe, as BSA is taken up into cells primarily by endocytosis and retained intracellularly after fixation (27, 28). For further visualization of intracellular localization, we utilized LAMP1 primary antibody (as it is distributed among endolysosomal organelles and serves as a marker for lysosomal compartments) (29), and utilized lysotracker in live cell experiments (as it allows for imaging of dynamics of lysosome vesicle movements) (30). RAW264.7 cells were treated in various conditions with rmCIRP, rmMFG-E8, and inhibitory antibody against auß3-integrin (Bioss antibodies, bs-1310R) for 4 hours. Cells were fixed with 4% paraformaldehyde (PFA), washed with 1×PBS, permeabilized using 0.3% Triton x100, and blocked using 5% BSA 100 mM Glycine in PBS prior to primary antibody treatment. After incubation with secondary antibodies, cells were washed and mounted with ProLong Gold antifade reagent (Invitrogen). For live cell imaging, cells remained in treatment conditions and were imaged under CO2. Staining procedures were performed according to the manufacturers' instructions utilizing respective fluorescent dyes and probes. For all imaging, confocal microscopy images were obtained using a Zeiss LSM880 confocal microscope equipped with a 63× objective. Images were quantified and analyzed using Image J, FIJI.(31) Flow cytometry.
To detect changes in internalized eCIRP in the presence of MFG-E8, RAW264.7 cells were seeded in 12-well plates (approximately 3×10^5 cells/well) and were treated with FITC-eCIRP. Treatment groups consisted of FITC-eCIRP, FITC-eCIRP with MFG-E8, FITC-eCIRP with MFG-E8 and αvβ3-integrin antibody (0.5 μg/mL), or FITC-eCIRP with MFG-E8 and IgG isotype (0.5 μg/mL). Similar experiments were conducted with MOP3 instead of MFG-E8 in parallel groups. […]

RAW264.7 cells = test: eCIRP-induced cytokine release in RAW264.7 cells (ELISA of supernatants); type: cell-based, mouse; conditions: RAW264.7, rmCIRP 1 μg/mL, 4 hours, vs rmCIRP alone
Method: FIG. 2. Effects of MOP peptides on TNFα levels. RAW264.7 macrophages were cultured and treated with either volume-equivalent PBS, recombinant murine (rm) CIRP (eCIRP; 1 μg/mL), or rmCIRP with each respective peptide (10 μg/mL). After 4 hours, cell supernatants were assessed for TNFα levels by ELISA. Experiments were performed 3 times, and all data were used for analysis. Data are expressed as mean±SEM and compared by one-way ANOVA and SNK test. *p<0.05 vs. PBS, #p<0.05 vs. eCIRP.
FIG. 4. eCIRP-induced inflammation is attenuated by MOP3. RAW264.7 cells were treated according to respective groups: PBS (volume equivalent), rmCIRP (1 μg/mL), or rmCIRP with MOP3 at increasing doses. After 4 hours, cell supernatants were analyzed for TNFα levels by ELISA. Experiments were performed 3 times, and all data were used for analysis. Data are expressed as mean #SEM and compared by one-way ANOVA and SNK test. *p<0.05 vs. PBS, #p<0.05 vs. eCIRP.
as §1
Mouse macrophage cell line, RAW264.7 cells were obtained from American Type Culture Collection (ATCC) and cultured in DMEM media with 10% FBS, 1% penicillin and streptomycin, and 1% glutamine. Cells were kept in 37° C. incubator under humidified conditions containing 5% CO2. […]
The mouse macrophage cell culture supernatants were analyzed for cytokine levels using ELISA kits (BD Biosciences, CA). […] TNF-α and IL-6 levels were measured in cell supernatants by ELISA in accordance with respective manufacturers' instructions (BD Biosciences, CA). Blood was collected, centrifuged at 4,000 RPM for 10 minutes, and sera was separated and analyzed for cytokine levels using ELISA kits (BD Biosciences, CA). TNF-α and IL-6 levels in the serum were measured by ELISA in accordance with respective manufacturers' instructions.

Substance	intracellular FITC-rmCIRP uptake (flow cytometry) (RAW264.7 macrophages)	TNFα levels in cell supernatants (RAW264.7 cells)
RGDVTGIITQGARDFGHI (listed as Mus musculus) [MOP8, RGD-tagged segment of murine MFG-E8 discoidin domain 2]	only a single peptide screened, peptide-3, could increase intracellular uptake	capable of attenuating TNFα release
MOP3-modification to “RGT”: modified peptide whereby the Arg-Gly-Asp AAs of MOP3 were edited to Arg-Gly-Thr (RGT) (RGTSSSYKTWNLRAFGWY) [reference compound]	loss of ability to internalize FITC-eCIRP	
RGDPFMARYVRVLPVSWH (listed as Mus musculus) [MOP14, RGD-tagged segment of murine MFG-E8 discoidin domain 2]	only a single peptide screened, peptide-3, could increase intracellular uptake	capable of attenuating TNFα release

— patent publication US20240197828A1, “Chimeric molecule to treat sepsis and other inflammatory conditions” (THE FEINSTEIN INSTITUTES FOR MEDICAL RESEARCH, priority 2022, published 2024)
